Measurements reported in patent US10815230B2, “Casein kinase 1 delta inhibitor” (ELECTROPHORETICS LIMITED, priority 2015, dated 2020).

Experiments:
Assay in all cases: KINOMEscan binding assay
Settings in all cases: read-out: % Ctrl @ 10000 nM
[1] = target: ABL1 (F317I) non-phosphorylated (Homo sapiens, UniProt P00519, F317I)
[2] = target: ABL1 (F317I) phosphorylated (Homo sapiens, UniProt P00519, F317I)
[3] = target: ABL1 (F317L) non-phosphorylated (Homo sapiens, UniProt P00519, F317L)
[4] = target: ABL1 (H396P) non-phosphorylated (Homo sapiens, UniProt P00519, H396P)
[5] = target: ADCK3 (Homo sapiens, UniProt Q8NI60)
[6] = target: ADCK4 (Homo sapiens, UniProt Q96D53)
[7] = target: AURKC (Homo sapiens, UniProt Q9UQB9)
[8] = target: BMX (Homo sapiens, UniProt P51813)
[9] = target: CDK4-cyclinD3 (Homo sapiens, UniProt P11802)
[10] = target: CHEK1 (Homo sapiens, UniProt O14757)
[11] = target: CLK3 (Homo sapiens, UniProt P49761)
[12] = target: CSNK1E (Homo sapiens, UniProt P49674)
[13] = target: DDR2 (Homo sapiens, UniProt Q16832)
[14] = target: DMPK2 (Homo sapiens, UniProt Q6DT37)
[15] = target: EGFR (G719C) (Homo sapiens, UniProt P00533, G719C)
[16] = target: EPHA3 (Homo sapiens, UniProt P29320)
[17] = target: FLT3-autoinhibited (Homo sapiens, UniProt P36888)
[18] = target: GRK4 (Homo sapiens, UniProt P32298)
[19] = target: HIPK1 (Homo sapiens, UniProt Q86Z02)
[20] = target: KIT (D816H) (Homo sapiens, UniProt P10721, D816H)
[21] = target: KIT (V559D, T670I) (Homo sapiens, UniProt P10721, T670I/V559D)
[22] = target: LIMK1 (Homo sapiens, UniProt P53667)
[23] = target: MST2 (Homo sapiens, UniProt Q13188)
[24] = target: MST4 (Homo sapiens, UniProt Q9P289)
[25] = target: MYLK4 (Homo sapiens, UniProt Q86YV6)
[26] = target: NIK (Homo sapiens, UniProt Q99558)
[27] = target: PIK3CA (Homo sapiens, UniProt P42336)
[28] = target: PIK4CB (Homo sapiens, UniProt Q9UBF8)
[29] = target: PIP5K1A (Homo sapiens, UniProt Q99755)
[30] = target: PLK1 (Homo sapiens, UniProt P53350)
[31] = target: PLK2 (Homo sapiens, UniProt Q9NYY3)
[32] = target: PRKCH (Homo sapiens, UniProt P24723)
[33] = target: PRKD1 (Homo sapiens, UniProt Q15139)
[34] = target: PRKG1 (Homo sapiens, UniProt Q13976)
[35] = target: RET (Homo sapiens, UniProt P07949)
[36] = target: RIPK1 (Homo sapiens, UniProt Q13546)
[37] = target: RPS6KA4 Kin.Dom.1-N-terminal (Homo sapiens, UniProt O75676)
[38] = target: RSK1 Kin.Dom.2-C-terminal (Homo sapiens, UniProt Q15418)
[39] = target: RSK3 Kin.Dom.2-C-terminal (Homo sapiens, UniProt Q15349)
[40] = target: SGK2 (Homo sapiens, UniProt Q9HBY8)
[41] = target: SIK2 (Homo sapiens, UniProt Q9H0K1)
[42] = target: TGFBR2 (Homo sapiens, UniProt P37173)

BMX, sequence (P51813 whole entry): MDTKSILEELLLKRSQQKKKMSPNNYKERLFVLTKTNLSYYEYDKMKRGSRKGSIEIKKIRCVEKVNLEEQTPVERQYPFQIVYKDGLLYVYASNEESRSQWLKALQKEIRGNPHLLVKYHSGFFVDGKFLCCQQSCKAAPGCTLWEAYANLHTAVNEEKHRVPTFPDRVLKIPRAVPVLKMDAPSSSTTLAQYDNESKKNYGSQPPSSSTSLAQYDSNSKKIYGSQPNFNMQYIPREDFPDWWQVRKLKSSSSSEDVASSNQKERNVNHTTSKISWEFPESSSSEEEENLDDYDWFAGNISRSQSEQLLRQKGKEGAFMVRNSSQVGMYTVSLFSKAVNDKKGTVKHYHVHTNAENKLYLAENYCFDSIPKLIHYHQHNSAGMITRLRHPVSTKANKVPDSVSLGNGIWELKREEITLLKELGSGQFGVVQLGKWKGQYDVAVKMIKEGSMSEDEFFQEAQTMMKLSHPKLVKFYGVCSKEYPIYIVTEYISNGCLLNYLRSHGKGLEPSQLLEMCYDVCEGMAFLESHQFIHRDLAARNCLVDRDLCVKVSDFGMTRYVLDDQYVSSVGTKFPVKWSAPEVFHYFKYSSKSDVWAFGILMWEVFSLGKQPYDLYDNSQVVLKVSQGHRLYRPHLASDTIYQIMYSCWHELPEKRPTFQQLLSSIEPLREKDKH
RSK1 Kin.Dom.2-C-terminal, sequence (Q15418 418-675 limits assumed): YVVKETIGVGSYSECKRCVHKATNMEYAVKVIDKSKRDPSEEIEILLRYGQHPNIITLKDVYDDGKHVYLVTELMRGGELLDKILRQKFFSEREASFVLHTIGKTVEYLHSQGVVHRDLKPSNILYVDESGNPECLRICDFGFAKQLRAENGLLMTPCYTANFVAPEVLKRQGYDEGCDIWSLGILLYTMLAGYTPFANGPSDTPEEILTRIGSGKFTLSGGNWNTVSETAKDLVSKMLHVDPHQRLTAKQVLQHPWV
KIT (V559D, T670I), sequence (P10721 26-976 V559D/T670I): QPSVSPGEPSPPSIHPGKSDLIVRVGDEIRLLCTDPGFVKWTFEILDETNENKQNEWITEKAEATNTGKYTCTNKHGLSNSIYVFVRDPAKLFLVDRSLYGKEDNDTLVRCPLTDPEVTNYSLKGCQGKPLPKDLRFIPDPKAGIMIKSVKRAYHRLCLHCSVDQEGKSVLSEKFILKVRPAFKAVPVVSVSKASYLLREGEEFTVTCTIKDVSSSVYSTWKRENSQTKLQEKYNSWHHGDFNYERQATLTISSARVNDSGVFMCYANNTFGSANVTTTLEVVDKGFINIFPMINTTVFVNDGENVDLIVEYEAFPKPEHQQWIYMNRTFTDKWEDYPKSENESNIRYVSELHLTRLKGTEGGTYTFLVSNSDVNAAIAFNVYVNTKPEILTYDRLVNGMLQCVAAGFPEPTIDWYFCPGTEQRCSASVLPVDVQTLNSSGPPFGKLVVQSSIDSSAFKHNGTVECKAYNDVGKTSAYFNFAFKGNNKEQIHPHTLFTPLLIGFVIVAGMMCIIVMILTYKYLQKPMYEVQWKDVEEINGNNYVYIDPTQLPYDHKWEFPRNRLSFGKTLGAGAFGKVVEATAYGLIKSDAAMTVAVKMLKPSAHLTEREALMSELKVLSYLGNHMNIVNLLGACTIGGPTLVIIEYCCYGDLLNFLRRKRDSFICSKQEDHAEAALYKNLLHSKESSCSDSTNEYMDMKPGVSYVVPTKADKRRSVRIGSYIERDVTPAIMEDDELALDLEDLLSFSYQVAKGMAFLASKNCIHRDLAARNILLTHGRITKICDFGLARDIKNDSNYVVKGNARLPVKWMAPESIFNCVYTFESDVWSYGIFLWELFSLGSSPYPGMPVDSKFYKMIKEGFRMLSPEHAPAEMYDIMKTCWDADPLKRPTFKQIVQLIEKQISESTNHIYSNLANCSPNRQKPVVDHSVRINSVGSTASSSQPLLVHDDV
CDK4-cyclinD3, sequence (P11802 whole entry): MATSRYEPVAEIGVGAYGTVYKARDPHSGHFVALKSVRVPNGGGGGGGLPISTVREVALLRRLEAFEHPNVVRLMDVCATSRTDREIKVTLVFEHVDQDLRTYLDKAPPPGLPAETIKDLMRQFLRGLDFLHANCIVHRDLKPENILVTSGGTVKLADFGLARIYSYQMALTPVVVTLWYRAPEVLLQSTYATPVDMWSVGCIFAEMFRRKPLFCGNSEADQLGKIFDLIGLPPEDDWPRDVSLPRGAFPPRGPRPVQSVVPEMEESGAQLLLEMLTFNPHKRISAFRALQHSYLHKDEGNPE
CDK4-cyclinD3, sequence (P30281 whole entry partner): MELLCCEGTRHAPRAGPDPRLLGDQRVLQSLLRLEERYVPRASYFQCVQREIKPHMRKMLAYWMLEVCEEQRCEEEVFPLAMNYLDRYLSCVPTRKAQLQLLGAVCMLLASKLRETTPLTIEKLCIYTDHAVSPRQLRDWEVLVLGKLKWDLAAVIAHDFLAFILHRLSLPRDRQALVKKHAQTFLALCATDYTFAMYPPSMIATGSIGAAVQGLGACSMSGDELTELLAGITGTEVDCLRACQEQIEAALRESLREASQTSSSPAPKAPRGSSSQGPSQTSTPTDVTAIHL
CHEK1, sequence (O14757 whole entry): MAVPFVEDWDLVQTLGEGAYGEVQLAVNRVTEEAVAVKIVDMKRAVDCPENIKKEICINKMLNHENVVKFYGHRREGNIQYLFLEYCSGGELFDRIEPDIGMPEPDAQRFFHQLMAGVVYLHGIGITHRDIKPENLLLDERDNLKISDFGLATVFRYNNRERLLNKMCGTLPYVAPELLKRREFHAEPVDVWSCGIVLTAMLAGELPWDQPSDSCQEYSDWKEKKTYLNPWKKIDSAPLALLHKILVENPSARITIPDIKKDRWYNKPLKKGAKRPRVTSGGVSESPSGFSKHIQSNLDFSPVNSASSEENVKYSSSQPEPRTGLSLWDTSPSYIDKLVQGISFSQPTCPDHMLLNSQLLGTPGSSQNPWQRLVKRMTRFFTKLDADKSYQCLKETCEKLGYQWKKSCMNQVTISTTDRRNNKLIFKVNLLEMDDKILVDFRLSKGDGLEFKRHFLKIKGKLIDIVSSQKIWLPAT
ADCK3, sequence (Q8NI60 163-647): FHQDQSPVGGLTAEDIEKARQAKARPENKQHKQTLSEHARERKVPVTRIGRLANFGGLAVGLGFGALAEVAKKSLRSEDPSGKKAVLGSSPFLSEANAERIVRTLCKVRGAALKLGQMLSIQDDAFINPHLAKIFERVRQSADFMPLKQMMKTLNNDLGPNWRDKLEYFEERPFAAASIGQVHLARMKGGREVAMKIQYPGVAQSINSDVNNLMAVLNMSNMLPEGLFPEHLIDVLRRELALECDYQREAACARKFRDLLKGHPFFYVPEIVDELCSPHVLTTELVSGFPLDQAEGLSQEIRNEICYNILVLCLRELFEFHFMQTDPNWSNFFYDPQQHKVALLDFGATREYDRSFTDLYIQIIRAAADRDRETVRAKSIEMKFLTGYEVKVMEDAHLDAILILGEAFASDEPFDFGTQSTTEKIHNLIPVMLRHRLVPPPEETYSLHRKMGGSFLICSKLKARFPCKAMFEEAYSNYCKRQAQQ
CLK3, sequence (P49761 whole entry): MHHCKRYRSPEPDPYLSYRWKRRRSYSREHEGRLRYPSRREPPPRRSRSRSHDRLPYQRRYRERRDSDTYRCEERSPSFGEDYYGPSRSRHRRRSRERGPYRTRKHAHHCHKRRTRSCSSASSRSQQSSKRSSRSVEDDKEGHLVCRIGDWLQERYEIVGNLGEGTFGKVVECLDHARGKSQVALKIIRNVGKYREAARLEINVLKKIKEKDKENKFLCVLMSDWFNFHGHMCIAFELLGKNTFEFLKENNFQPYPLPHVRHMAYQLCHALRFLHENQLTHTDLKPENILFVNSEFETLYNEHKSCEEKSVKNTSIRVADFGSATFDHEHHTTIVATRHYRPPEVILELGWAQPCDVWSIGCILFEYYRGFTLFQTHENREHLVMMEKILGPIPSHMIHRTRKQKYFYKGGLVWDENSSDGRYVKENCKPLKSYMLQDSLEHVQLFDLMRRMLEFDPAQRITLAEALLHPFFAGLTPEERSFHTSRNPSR
RIPK1, sequence (Q13546 whole entry): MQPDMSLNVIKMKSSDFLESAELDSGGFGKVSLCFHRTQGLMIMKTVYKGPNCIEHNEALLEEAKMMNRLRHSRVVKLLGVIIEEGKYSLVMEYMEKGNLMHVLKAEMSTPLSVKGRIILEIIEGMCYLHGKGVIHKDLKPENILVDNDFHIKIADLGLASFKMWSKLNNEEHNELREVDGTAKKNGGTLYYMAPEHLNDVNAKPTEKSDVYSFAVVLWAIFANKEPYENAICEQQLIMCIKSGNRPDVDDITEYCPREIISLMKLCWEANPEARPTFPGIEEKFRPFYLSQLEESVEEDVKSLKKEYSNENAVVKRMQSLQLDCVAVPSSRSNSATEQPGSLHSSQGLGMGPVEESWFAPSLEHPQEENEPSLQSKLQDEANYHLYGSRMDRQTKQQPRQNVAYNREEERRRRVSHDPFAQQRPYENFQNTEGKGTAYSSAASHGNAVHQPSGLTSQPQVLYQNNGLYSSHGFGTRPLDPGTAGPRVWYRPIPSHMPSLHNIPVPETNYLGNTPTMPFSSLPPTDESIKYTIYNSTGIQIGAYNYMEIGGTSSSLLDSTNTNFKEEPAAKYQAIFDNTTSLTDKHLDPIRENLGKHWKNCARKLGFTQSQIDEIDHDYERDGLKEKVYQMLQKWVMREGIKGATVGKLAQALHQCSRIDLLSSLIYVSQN
MYLK4, sequence (Q86YV6 whole entry): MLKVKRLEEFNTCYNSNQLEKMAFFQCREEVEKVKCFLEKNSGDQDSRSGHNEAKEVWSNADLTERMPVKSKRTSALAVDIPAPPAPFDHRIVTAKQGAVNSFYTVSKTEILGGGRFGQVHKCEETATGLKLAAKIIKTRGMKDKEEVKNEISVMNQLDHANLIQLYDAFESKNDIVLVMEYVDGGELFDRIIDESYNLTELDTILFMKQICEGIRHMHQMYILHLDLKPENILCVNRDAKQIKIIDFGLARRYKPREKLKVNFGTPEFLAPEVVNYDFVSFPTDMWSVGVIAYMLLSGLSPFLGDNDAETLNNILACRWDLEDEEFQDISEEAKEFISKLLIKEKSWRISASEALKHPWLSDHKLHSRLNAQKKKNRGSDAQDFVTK

Nc1ncc(-c2nc3ccccc3o2)c(-c2ccncc2)n1 [Comparative Compound 324, 5-(1,3-benzoxazol-2-yl)-4-(pyridine-4-yl)pyrimidin-2-amine]
remaining binding at 10 µM [1]: 90% | remaining binding at 10 µM [2]: 100% | remaining binding at 10 µM [3]: 100% | remaining binding at 10 µM [4]: 66% | remaining binding at 10 µM [5]: 88% | remaining binding at 10 µM [6]: 100% | remaining binding at 10 µM [7]: 100% | remaining binding at 10 µM [8]: 100% | remaining binding at 10 µM [9]: 100% | remaining binding at 10 µM [10]: 100% | remaining binding at 10 µM [11]: 99% | remaining binding at 10 µM [12]: 1.4% | remaining binding at 10 µM [13]: 100% | remaining binding at 10 µM [14]: 82% | remaining binding at 10 µM [15]: 64% | remaining binding at 10 µM [16]: 86% | remaining binding at 10 µM [17]: 95% | remaining binding at 10 µM [18]: 100% | remaining binding at 10 µM [19]: 64% | remaining binding at 10 µM [20]: 86% | remaining binding at 10 µM [21]: 98% | remaining binding at 10 µM [22]: 100% | remaining binding at 10 µM [23]: 94% | remaining binding at 10 µM [24]: 68% | remaining binding at 10 µM [25]: 98% | remaining binding at 10 µM [26]: 100% | remaining binding at 10 µM [27]: 100% | remaining binding at 10 µM [28]: 96% | remaining binding at 10 µM [29]: 96% | remaining binding at 10 µM [30]: 90% | remaining binding at 10 µM [31]: 92% | remaining binding at 10 µM [32]: 99% | remaining binding at 10 µM [33]: 100% | remaining binding at 10 µM [34]: 100% | remaining binding at 10 µM [35]: 94% | remaining binding at 10 µM [36]: 100% | remaining binding at 10 µM [37]: 100% | remaining binding at 10 µM [38]: 44% | remaining binding at 10 µM [39]: 100% | remaining binding at 10 µM [40]: 100% | remaining binding at 10 µM [41]: 100% | remaining binding at 10 µM [42]: 100%

CNc1c(C(N)=O)c2ccccn2c1C(=O)c1ccc(F)cc1 [Compound A, 2-methyl-amino-3-[(4-fluorophenyl)carbonyl]indolizine-1-carboxamide]
remaining binding at 10 µM [1]: 85% | remaining binding at 10 µM [2]: 88% | remaining binding at 10 µM [3]: 88% | remaining binding at 10 µM [4]: 14% | remaining binding at 10 µM [5]: 91% | remaining binding at 10 µM [6]: 84% | remaining binding at 10 µM [7]: 100% | remaining binding at 10 µM [8]: 91% | remaining binding at 10 µM [9]: 96% | remaining binding at 10 µM [10]: 85% | remaining binding at 10 µM [11]: 94% | remaining binding at 10 µM [12]: 0.1% | remaining binding at 10 µM [13]: 65% | remaining binding at 10 µM [14]: 65% | remaining binding at 10 µM [15]: 32% | remaining binding at 10 µM [16]: 68% | remaining binding at 10 µM [17]: 87% | remaining binding at 10 µM [18]: 97% | remaining binding at 10 µM [19]: 51% | remaining binding at 10 µM [20]: 86% | remaining binding at 10 µM [21]: 99% | remaining binding at 10 µM [22]: 100% | remaining binding at 10 µM [23]: 89% | remaining binding at 10 µM [24]: 65% | remaining binding at 10 µM [25]: 43% | remaining binding at 10 µM [26]: 100% | remaining binding at 10 µM [27]: 89% | remaining binding at 10 µM [28]: 90% | remaining binding at 10 µM [29]: 100% | remaining binding at 10 µM [30]: 82% | remaining binding at 10 µM [31]: 71% | remaining binding at 10 µM [32]: 95% | remaining binding at 10 µM [33]: 100% | remaining binding at 10 µM [34]: 100% | remaining binding at 10 µM [35]: 80% | remaining binding at 10 µM [36]: 99% | remaining binding at 10 µM [37]: 100% | remaining binding at 10 µM [38]: 23% | remaining binding at 10 µM [39]: 68% | remaining binding at 10 µM [40]: 100% | remaining binding at 10 µM [41]: 59% | remaining binding at 10 µM [42]: 100%
